Assay [1] has as its system BRD4(1,2)^L94C transiently expressed in HEK293T cells. Put plainly: In-cell labeling of tandem bromodomain. The assay is classed as cell-based, human. The procedure: (§1) reaction mix was taken and 8 µL of Lamelli buffer added, and the samples denatured by heating at 95 °C for 10 min. Samples were separated by gel electrophoresis on NuPAGE™ 4–12%, Bis-Tris precast polyacrylamide gels (Thermofisher). Following electrophoresis, gels were stained for 15 min with InstantBlueTM Coomasie® stain (Abcam), destained, and imaged using Bio-rad molecular imager.
(§2) Bio-rad Image Lab 6.1 was used to process the data.
(§3) In-cell target engagement
In-cell labeling by clickable probes
Transfected HEK293T cells at ~90% confluency were incubated for 1 h with a DMSO control (0.5% DMSO final concentration) or a click probe (10 µM, 0.5% DMSO final concentration) diluted in Opti- […]
Cells were then harvested and lysed using the previously described protocol above. The resulting cell lysates were diluted to 2 mg/mL using the previously described protocol above. […]
(§4) Gels were imaged for fluorescence using Bio-rad molecular imager and then stained for 15 min with InstantBlueTM Coomasie® stain (Abcam), destained, and imaged using Bio-rad molecular imager. […]
(§5) Transfected HEK293T cells at ~90% confluency were incubated for 30 min with a DMSO control or varying concentrations of OXFBD04 diluted in Opti-MEM media. […] Cells were then harvested, processed, and analysed using the previously described protocol above. […]

For assay [2], the system named is T1, StrepII-tagged BRD4(1)^L94C or BRD4(1)^WT in HEK293T cells.
T1 construct: the L94C mutation in the first bromodomain of BRD4 [BRD4(1)]; StrepII; expressed in transfected cells; host or cells: HEK293T
Briefly: Immunoprecipitation of StrepII-tagged bromodomains after in-cell labeling. The following applies: 10 µM probe, 1 h, anti-StrepII pull-down, in-gel fluorescence. In kind it is cell-based, human. As to the method: Compound engagement with BRD4(1)^L94C was further validated by using an immunoprecipitation (IP) assay (Figure S22). Here, transfected HEK293T cells expressing StrepII-tagged BRD4(1)^L94C or StrepII-tagged BRD4(1)^WT were incubated with compound 42 before being lysed. The StrepII-tagged bromodomains were then pulled down using anti-StrepII antibodies, and the samples were separated by SDS-PAGE for analysis. […]
as §1, §2, §3
In-cell labeling by clickable probes […]
as §4, §5

Structures are written as SMILES.

Regarding `C#CCOc1cc(NC(=O)C=C)ccc1N1CCCC1=O` [Compound 42], in assay [1], the “In-cell labeling of BRD4(1,2)^L94C (fluorescent band ∼80 kDa)” value was “selectively label”. In addition, the “Engagement of StrepII-tagged BRD4(1)^L94C versus BRD4(1)^WT by immunoprecipitation” value in assay [2] is on record as “selective engagement of BRD4(1)^L94C”.
